Laboratory results taken from US20220220472A1, “TARGETED THERAPY” (The Regents of the University of Michigan, priority 2019, published 2022).

Experiments:
HCT116 cells = assay: Clonogenic survival of HCT116 cells with Dox-inducible dCas9-Fok1-GFP and gRNA pairs; format: cell-based; details: Nu7441 200 nM, 12 days, no gRNA
Method: Cells were plated and treated with different concentrations of Dox for 12 days. Cells were then fixed and stained, colonies were counted, and colony numbers were reported as a percentage of control cells not treated with Dox. […] Cells were plated and treated with different concentrations of Dox for 12 days. Cells were then fixed and stained and colonies counted and expressed as a percentage of control cells not treated with Dox. In FIG. 5A and FIG. 5B, the gRNA pairs target two CRJs on chromosome 3 (3ab and 3cd), one on chromosome 5 (5ab), and one on the X chromosome (xab).
During the development of embodiments of the technology provided herein, experiments were conducted to evaluate use of a dCas9-Fok1 fusion protein and to produce a dCas9-Fok1 fusion protein further comprising a GFP domain to provide a tool to detect expression in cells. Furthermore, the dCas9-Fok1-GFP fusion and the gRNA genes were placed under the regulation of a tet-inducible promoter for performing experiments to establish the cells in culture or as xenografts and then induce expression by addition of doxycycline (Dox). […]
HCT116 cells with stable expression of dCas9-Fok1-GFP, 3ab3cd/Fok1-dcas9-GFP, 5ab3cd/Fok1-GFP, and 3abxab/dCas9-GFP were maintained in DMEM containing 10% FBS. […] Clonogenic survival colonies with 50 cells or more were counted.

[1] = test system: UMUC-3 bladder cancer cells; assay: Clonogenic survival assay in UMUC-3 bladder cancer cells; format: cell-based, human; details: doxycycline induction plus Nu7441
From the text: FIG. 6C is a series of bar plots showing data collected from an […] clonogenic survival assay in the UMUC-3 bladder cells shown schematically in FIG. 6B. […] Further, treatments with the DNA-PK inhibitor Nu7441 improved the toxicity of the CRJ-targeting gRNAs (bottom row). The data are expressed as the mean and standard deviation of three biological replicates. Numbers (3a & X; 7 & 2; 7 & 4; 19 & 2; and 19 & 4) indicate the combinations of gRNA used for the experiment.
First, CRJs were identified in bladder cancer cells (see, e.g., FIG. 6A). Using sequence information from the CRJs identified in bladder cancer cells, gRNA were designed and UMUC-3 (ATCC Accession CRL-1749) cell lines were produced comprising doxycycline-inducible expression of Fok1-dCas9 and the CRJ-targeting gRNAs. gRNA sequences are provided in Table 2.
Six UMUC-3 bladder cancer sublines were generated—Two control cell lines were produced, one expressing no gRNAs and one expressing 2 pairs of non-targeting gRNAs; four experimental cell lines were produced expressing Fok1-dCas9-GFP and two pairs of CRJ-targeting gRNAs under the regulation of doxycycline (see, e.g., FIG. 6B). CRJ-specific DSBs were induced in the cells (e.g., using doxycycline) and toxicity was monitored to determine if interfering with DSB repair leads to increased killing of bladder cancer cells (see, e.g., FIG. 6C, top row). […]

HCT116 xenografts = assay: HCT116 xenograft tumor growth in mice; format: in vivo; details: water with Dox and Nu7441
Method: In these experiments, HCT116 cells are injected into mice and each group is split into three treatment groups that receive ether regular water, water with Dox, or water with Dox and Nu7441.
Experiments are conducted in which three of the HCT116 cell lines with dox-inducible expression of dCas9-Fok1-GFP with and without CRJ-targeting gRNAs are used to form xenografts in the flank of mice. In these experiments, one million HCT116 cells in a 100 μl Matrigel suspension are injected s.c. into the hind leg of the mice (a total of 54 NOD/SCID or athymic BALB/C, 10-12 weeks old). When tumors reach sizes of 50-150 mm^3, each group is split into three groups (see, e.g., FIG. 2) where they receive ether regular water, water with Dox, or water with Dox and Nu7441. Tumor measurements are taken daily and mouse weights are recorded 3 times weekly. As the control tumors reach the predetermined tumor size limit, animals are euthanized. At this time, the tumors are removed, weighed, and documented (e.g., using digital imaging) and used for downstream analyses. Downstream analyses include measuring expression of dCas9-Fok1-GFP (green fluorescence) and γH2AX ChIP-PCR with primers for sequences near the CRJ and sequences far away as a control.

UMUC-3 orthotopic tumors = assay: UMUC-3 orthotopic xenograft tumor growth in NOD-scid mice; format: in vivo; details: UMUC-3 in NODscid mice; doxycycline plus Nu7441
Method: FIG. 7 is a schematic drawing showing an in vivo experiment comparing tumor growth between UMUC-3 cells expressing non-targeting gRNAs (left) and UMUC-3 cells expressing CRJ-targeting gRNAs (right). These cell lines are engineered to express luciferase for bioluminescent monitoring. Each mouse group represents 10 NODscid mice. […] Accordingly, further experiments are conducted to grow these cell lines as orthotopic xenografts in NOD-scid mice and to monitor tumor growth (e.g., using bioluminescence) in vivo as the CRISPR reagents are induced by doxycycline (e.g., provided in food and/or water). UMUC-3 cells are grown as orthotopic tumors in NOD-scid mice, animals are given doxycycline to induce Fok1-dCas9 and the two pairs of gRNAs in the cancer cells, and the effects on tumor growth are assessed by bioluminescence. […] The other cell line expresses CRJ-targeting gRNAs following doxycycline exposure. Experiments are conducted with or without a DNA-PK inhibitor (e.g., Nu7441) and with and without doxycycline in the drinking water and/or in the food. 10 animals are used per group with 8 groups for a total of 80 animals (FIG. 7).

Compound: O=c1cc(N2CCOCC2)oc2c(-c3cccc4c3sc3ccccc34)cccc12 [Nu7441]
- effect of Nu7441 on clonogenicity of cells expressing dCas9-Fok1-GFP alone (HCT116 cells): did not affect clonogenicity
- toxicity / survival with DNA-PK inhibitor Nu7441 [1]: augmented this effect
- suppression of tumor growth with Nu7441 (HCT116 xenografts): Suppression of tumor growth is augmented
- tumor growth inhibition with Nu7441 (UMUC-3 orthotopic tumors): augments tumor growth inhibition
